# From article PMC12586182 (Frontiers in Oncology, 2025)
# Experiments:
# Test in all cases: Kinase panel profiling at 1 µmol/L (mobility shift assay, Carna)
# Format in all cases: biochemical
# Conditions in all cases: 1 µmol/L of BTK inhibitor
# FLT3 = biological target: T1, FLT3 (Homo sapiens, UniProt P36888)
# T1 construct: purchased Carna Biosciences
# T1 sequence (P36888 27-993): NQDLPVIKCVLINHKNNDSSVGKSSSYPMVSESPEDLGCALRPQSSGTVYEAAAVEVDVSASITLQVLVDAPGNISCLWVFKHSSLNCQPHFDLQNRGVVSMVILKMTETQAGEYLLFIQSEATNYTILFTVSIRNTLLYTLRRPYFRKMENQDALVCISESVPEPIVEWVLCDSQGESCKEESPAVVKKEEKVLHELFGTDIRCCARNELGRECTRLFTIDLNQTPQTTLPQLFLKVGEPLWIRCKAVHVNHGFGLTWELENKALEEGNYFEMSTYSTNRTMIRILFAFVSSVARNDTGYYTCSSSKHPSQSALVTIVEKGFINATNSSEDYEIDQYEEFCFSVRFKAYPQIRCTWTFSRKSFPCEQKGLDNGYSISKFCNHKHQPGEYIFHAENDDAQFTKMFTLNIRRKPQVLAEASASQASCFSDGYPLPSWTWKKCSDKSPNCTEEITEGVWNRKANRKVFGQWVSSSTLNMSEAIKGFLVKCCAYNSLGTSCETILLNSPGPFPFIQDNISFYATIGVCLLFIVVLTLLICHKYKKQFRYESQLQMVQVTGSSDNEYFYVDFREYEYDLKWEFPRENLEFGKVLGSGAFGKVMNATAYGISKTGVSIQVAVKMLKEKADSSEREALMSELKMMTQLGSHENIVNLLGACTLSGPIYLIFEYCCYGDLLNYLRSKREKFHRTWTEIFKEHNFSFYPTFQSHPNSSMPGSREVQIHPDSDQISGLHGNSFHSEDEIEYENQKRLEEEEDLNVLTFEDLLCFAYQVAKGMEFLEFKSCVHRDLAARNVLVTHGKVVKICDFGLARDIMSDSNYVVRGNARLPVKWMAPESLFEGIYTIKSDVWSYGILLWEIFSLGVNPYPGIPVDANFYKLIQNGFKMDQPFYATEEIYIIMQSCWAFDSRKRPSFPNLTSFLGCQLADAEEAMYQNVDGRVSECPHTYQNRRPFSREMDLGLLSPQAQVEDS
# MET = biological target: T2, MET (Homo sapiens, UniProt P08581)
# T2 construct: purchased Carna Biosciences
# T2 sequence (P08581 25-1390): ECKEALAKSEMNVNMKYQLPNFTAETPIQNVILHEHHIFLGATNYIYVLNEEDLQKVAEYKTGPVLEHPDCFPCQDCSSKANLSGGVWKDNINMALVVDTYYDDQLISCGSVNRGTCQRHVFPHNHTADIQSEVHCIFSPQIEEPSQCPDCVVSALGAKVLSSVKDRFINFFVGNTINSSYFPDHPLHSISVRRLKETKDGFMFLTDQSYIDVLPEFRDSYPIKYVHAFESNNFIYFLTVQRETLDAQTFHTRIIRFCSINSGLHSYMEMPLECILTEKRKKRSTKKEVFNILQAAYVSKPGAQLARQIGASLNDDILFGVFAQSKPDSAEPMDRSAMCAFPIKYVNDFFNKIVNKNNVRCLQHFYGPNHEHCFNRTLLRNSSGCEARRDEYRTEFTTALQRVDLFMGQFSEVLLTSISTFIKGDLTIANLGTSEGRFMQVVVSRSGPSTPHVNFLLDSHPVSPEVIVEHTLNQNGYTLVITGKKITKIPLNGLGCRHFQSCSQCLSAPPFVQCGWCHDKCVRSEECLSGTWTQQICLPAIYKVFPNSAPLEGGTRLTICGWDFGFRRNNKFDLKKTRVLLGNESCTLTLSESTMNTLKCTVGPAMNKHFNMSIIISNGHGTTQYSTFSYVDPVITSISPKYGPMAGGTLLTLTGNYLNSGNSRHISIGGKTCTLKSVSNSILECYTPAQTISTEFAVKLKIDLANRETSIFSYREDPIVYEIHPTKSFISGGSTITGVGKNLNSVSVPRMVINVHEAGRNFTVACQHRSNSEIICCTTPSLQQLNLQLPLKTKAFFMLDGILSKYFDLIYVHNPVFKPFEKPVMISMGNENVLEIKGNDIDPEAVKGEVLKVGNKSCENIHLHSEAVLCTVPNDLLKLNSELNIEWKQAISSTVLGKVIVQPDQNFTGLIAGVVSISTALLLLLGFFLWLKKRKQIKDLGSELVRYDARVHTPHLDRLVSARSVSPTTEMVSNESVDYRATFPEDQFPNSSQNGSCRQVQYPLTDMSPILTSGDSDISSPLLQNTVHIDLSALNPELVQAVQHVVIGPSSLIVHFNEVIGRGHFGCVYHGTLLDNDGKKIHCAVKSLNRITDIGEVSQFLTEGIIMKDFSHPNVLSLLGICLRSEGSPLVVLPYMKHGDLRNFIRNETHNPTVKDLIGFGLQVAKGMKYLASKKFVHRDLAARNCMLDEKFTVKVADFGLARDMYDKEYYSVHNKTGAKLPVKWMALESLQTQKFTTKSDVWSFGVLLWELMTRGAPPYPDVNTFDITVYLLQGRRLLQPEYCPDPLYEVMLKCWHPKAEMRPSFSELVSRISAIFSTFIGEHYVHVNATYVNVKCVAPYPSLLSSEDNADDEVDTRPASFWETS
# PDGFRβ = biological target: T3, PDGFRβ (Homo sapiens, UniProt P09619)
# T3 construct: purchased Carna Biosciences
# T3 sequence (P09619 33-1106): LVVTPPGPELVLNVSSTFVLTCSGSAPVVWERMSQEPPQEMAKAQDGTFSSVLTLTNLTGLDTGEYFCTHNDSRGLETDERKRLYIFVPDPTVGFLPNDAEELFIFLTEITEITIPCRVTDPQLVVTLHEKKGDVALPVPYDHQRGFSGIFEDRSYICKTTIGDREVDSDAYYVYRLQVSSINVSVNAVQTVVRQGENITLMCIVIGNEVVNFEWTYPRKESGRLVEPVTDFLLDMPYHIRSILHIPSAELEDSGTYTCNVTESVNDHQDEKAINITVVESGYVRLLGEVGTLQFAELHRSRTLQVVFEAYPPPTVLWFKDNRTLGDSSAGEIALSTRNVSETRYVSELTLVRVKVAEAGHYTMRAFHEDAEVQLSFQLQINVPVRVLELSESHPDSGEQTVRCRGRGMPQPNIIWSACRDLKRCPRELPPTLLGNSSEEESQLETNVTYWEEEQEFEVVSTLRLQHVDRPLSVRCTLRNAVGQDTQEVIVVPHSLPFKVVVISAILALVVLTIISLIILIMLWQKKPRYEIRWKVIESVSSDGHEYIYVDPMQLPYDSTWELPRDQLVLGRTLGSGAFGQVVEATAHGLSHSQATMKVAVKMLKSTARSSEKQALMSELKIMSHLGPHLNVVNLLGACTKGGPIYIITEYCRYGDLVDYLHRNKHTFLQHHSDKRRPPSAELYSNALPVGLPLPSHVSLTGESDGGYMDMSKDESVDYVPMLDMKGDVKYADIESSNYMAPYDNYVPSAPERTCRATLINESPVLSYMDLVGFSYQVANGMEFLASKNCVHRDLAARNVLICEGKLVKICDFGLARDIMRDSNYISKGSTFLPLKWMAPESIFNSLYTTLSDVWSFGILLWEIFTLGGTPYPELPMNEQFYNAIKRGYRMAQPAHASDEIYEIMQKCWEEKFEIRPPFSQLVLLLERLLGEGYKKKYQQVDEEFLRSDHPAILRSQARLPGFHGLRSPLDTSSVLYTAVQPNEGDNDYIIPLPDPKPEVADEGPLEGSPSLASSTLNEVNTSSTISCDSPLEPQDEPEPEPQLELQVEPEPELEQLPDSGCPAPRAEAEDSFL
# LATS2 = biological target: T4, LATS2 (Homo sapiens, UniProt Q9NRM7)
# T4 construct: purchased Carna Biosciences
# T4 sequence (Q9NRM7 1-1088): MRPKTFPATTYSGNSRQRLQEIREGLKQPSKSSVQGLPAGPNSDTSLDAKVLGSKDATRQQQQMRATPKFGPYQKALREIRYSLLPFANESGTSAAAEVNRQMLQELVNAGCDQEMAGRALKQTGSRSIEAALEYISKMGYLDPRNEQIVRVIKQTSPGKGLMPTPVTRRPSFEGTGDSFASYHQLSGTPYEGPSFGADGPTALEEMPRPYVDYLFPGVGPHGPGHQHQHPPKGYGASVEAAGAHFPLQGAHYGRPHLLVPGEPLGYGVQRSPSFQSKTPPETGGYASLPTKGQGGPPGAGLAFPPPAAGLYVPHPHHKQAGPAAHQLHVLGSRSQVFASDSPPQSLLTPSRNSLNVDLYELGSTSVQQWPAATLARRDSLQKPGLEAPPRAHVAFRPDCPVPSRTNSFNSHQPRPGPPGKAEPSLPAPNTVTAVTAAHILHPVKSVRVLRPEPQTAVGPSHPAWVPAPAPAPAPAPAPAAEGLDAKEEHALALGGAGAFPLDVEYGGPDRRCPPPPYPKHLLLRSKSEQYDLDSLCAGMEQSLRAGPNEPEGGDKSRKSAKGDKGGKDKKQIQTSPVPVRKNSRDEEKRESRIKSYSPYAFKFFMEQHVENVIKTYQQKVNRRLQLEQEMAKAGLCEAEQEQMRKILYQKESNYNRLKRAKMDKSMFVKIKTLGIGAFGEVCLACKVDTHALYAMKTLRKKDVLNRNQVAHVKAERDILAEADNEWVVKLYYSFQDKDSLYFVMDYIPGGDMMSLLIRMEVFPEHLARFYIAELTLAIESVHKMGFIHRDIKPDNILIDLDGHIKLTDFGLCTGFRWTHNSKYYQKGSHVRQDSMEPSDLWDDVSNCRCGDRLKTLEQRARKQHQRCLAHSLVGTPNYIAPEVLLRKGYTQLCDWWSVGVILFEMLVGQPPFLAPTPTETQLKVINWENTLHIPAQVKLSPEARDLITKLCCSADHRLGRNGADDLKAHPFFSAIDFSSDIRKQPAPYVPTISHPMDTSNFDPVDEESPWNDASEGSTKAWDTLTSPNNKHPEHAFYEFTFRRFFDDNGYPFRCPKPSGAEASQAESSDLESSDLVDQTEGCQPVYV
# PAK2 = biological target: T5, PAK2 (Homo sapiens, UniProt Q13177)
# T5 construct: purchased Carna Biosciences
# T5 sequence (Q13177 whole entry): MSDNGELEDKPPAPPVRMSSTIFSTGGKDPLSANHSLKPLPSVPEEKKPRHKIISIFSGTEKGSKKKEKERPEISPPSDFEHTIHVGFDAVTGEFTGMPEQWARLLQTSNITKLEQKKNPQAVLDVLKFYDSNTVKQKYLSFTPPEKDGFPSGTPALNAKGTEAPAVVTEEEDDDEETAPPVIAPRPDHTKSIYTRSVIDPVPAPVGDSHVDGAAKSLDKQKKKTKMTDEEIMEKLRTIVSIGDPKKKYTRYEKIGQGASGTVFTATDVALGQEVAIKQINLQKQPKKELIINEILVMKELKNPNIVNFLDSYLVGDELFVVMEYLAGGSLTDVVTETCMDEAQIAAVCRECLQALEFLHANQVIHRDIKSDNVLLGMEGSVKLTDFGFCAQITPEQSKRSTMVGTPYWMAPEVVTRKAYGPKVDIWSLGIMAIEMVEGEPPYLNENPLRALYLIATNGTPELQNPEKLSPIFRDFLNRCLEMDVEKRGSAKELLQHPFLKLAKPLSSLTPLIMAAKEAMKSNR
# PASK = biological target: T6, PASK (Homo sapiens, UniProt Q96RG2)
# T6 construct: purchased Carna Biosciences
# TSSK2 = biological target: T7, TSSK2 (Homo sapiens, UniProt Q96PF2)
# T7 construct: purchased Carna Biosciences
# T7 sequence (Q96PF2 1-358): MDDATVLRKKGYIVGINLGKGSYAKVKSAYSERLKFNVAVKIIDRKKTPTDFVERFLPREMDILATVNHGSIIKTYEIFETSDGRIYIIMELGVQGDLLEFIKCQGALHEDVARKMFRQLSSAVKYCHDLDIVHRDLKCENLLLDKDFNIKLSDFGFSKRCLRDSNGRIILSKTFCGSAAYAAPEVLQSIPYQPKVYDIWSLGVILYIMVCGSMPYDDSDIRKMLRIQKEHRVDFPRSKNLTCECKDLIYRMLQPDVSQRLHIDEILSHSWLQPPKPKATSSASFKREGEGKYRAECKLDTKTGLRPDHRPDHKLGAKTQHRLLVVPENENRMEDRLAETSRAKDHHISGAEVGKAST
# WNK3 = biological target: T8, WNK3 (Homo sapiens, UniProt Q9BYP7)
# T8 construct: purchased Carna Biosciences
# T8 sequence (Q9BYP7 whole entry): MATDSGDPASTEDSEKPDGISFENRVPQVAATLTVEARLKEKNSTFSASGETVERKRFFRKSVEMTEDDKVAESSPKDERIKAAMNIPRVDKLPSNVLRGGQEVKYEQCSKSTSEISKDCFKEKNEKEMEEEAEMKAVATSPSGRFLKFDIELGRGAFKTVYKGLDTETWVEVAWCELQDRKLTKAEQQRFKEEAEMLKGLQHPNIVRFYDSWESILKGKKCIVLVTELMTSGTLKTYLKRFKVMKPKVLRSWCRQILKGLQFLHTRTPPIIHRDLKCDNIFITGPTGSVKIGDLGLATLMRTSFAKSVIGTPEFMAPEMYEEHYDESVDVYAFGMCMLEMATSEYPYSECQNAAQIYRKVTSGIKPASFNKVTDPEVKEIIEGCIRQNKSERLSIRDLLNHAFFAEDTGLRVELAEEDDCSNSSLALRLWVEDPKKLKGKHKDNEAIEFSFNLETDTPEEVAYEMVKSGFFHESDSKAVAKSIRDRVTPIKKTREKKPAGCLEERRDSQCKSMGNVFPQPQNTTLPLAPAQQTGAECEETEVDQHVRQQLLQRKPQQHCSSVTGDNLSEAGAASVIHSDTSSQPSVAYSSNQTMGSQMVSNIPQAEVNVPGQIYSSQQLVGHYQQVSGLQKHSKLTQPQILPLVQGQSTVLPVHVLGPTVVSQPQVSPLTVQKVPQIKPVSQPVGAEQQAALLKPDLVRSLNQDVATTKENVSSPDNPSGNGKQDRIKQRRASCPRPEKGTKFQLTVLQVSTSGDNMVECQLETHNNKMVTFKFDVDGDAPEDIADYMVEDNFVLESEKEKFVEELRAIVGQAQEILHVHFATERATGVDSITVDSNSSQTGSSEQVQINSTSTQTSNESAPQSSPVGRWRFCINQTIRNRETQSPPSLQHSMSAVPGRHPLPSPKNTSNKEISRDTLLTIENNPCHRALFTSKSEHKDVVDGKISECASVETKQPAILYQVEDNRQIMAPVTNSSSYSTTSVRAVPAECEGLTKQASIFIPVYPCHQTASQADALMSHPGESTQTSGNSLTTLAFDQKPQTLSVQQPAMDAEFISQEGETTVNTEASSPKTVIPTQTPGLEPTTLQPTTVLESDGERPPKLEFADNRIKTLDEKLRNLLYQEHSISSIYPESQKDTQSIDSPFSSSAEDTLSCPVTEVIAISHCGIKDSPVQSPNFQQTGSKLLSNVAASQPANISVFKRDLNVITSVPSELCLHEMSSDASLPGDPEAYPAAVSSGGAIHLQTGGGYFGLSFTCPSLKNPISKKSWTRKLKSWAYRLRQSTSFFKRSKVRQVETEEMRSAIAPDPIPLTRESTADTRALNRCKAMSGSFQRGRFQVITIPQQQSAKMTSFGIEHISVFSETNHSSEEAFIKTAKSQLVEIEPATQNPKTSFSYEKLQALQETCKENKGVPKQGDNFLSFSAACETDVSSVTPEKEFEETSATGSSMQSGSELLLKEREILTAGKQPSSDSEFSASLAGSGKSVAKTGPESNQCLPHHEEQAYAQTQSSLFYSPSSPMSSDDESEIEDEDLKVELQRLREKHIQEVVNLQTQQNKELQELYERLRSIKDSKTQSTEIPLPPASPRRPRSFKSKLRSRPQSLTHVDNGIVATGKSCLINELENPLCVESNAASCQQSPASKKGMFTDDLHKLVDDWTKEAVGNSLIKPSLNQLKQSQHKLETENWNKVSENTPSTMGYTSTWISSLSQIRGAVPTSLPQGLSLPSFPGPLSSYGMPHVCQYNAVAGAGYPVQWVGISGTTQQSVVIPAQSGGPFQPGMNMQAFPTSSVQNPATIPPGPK
structure (smiles),measurement,setting,value
O=C(c1ccc(Oc2ccccc2)cc1Cl)c1c[nH]c2ncnc(N[C@@H]3CC[C@@H](CO)OC3)c12 [nemtabrutinib],Percentage inhibition of kinase enzyme activity,FLT3,99.30%
same,Percentage inhibition of kinase enzyme activity,MET,42.98%
same,Percentage inhibition of kinase enzyme activity,PDGFRβ,76.83%
same,Percentage inhibition of kinase enzyme activity,LATS2,70.96%
same,Percentage inhibition of kinase enzyme activity,PAK2,93.68%
same,Percentage inhibition of kinase enzyme activity,PASK,21.76%
same,Percentage inhibition of kinase enzyme activity,TSSK2,-0.84%
same,Percentage inhibition of kinase enzyme activity,WNK3,52.96%
CC#CC(=O)N1CCC[C@H]1c1nc(-c2ccc(C(=O)Nc3ccccn3)cc2)c2c(N)nccn12 [acalabrutinib],Percentage inhibition of kinase enzyme activity,FLT3,3.27%
same,Percentage inhibition of kinase enzyme activity,MET,3.91%
same,Percentage inhibition of kinase enzyme activity,PDGFRβ,5.36%
same,Percentage inhibition of kinase enzyme activity,LATS2,-7.45%
same,Percentage inhibition of kinase enzyme activity,PAK2,-5.20%
same,Percentage inhibition of kinase enzyme activity,PASK,-5.37%
same,Percentage inhibition of kinase enzyme activity,TSSK2,-3.11%
same,Percentage inhibition of kinase enzyme activity,WNK3,-0.26%
COc1ccc(F)cc1C(=O)NCc1ccc(-c2nn([C@@H](C)C(F)(F)F)c(N)c2C(N)=O)cc1 [pirtobrutinib],Percentage inhibition of kinase enzyme activity,FLT3,-4.18%
same,Percentage inhibition of kinase enzyme activity,MET,1.44%
same,Percentage inhibition of kinase enzyme activity,PDGFRβ,5.87%
same,Percentage inhibition of kinase enzyme activity,LATS2,2.57%
same,Percentage inhibition of kinase enzyme activity,PAK2,8.29%
same,Percentage inhibition of kinase enzyme activity,PASK,3.07%
same,Percentage inhibition of kinase enzyme activity,TSSK2,-11.71%
same,Percentage inhibition of kinase enzyme activity,WNK3,2.54%
C=CC(=O)N1CCC([C@@H]2CCNc3c(C(N)=O)c(-c4ccc(Oc5ccccc5)cc4)nn32)CC1 [zanubrutinib],Percentage inhibition of kinase enzyme activity,FLT3,6.34%
same,Percentage inhibition of kinase enzyme activity,MET,1.41%
same,Percentage inhibition of kinase enzyme activity,PDGFRβ,5.37%
same,Percentage inhibition of kinase enzyme activity,PAK2,9.82%
C=CC(=O)N1CCC[C@@H](n2nc(-c3ccc(Oc4ccccc4)cc3)c3c(N)ncnc32)C1 [ibrutinib],Percentage inhibition of kinase enzyme activity,FLT3,62.77%
same,Percentage inhibition of kinase enzyme activity,MET,11.55%
same,Percentage inhibition of kinase enzyme activity,PDGFRβ,54.81%
same,Percentage inhibition of kinase enzyme activity,LATS2,5.45%
same,Percentage inhibition of kinase enzyme activity,PAK2,-5.81%
same,Percentage inhibition of kinase enzyme activity,PASK,-0.0437%
same,Percentage inhibition of kinase enzyme activity,TSSK2,-3.91%
same,Percentage inhibition of kinase enzyme activity,WNK3,6.84%
